Counter-ions that a name gives are not always drawn.
Columns and labels:
[1] = Elimination of the molecules: cumulative urinary and faecal excretion 0-72 hours; type: in vivo, mouse
tumour = test: Dosimetry with regard to the tumour (MIRD programme, extrapolated to ^131I)
[2] = test system: grafted B16 F0 murine melanoma tumour; test: Biodistribution of the ^125I-labelled molecules in the melanoma-bearing mouse (autoradiography of whole-body sections); conditions: ^125I-labelled compound

Faecal elimination 0-72 hours (Faeces) ([1]; cumulative excretion 0-72 hours, faeces, mice in metabolic cages): 5.3%
Urinary and faecal elimination 0-72 hours (Total) ([1]; cumulative excretion 0-72 hours, urine + faeces): 72.6%
Urinary elimination 0-72 hours (Urine) ([1]; cumulative excretion 0-72 hours, urine, mice in metabolic cages): 67.3%
elimination route (in words) ([1]; urinary versus faecal, 0-72 hours): predominantly in the urine
Effective period (tumour; extrapolated to 131I labelling): 17.3 h
Biological period (tumour; from biodistribution data): 19.0 hours
Concentration of radioactivity, B 16 (tumour), Mean ([2]; 1 H after i.v. administration): 15.49 % ID/g
Concentration of radioactivity, GB (gall bladder), Mean ([2]; 1 H after i.v. administration): 8.68 % ID/g
Concentration of radioactivity, Ic (intestinal contents), Mean ([2]; 1 H after i.v. administration): 13.44 % ID/g
Concentration of radioactivity, SV (seminal vesicles), Mean ([2]; 1 H after i.v. administration): 6.79 % ID/g
Concentration of radioactivity, Sc (stomach contents), Mean ([2]; 1 H after i.v. administration): 34.80 % ID/g
Concentration of radioactivity, blood (measured in the heart cavity), Mean ([2]; 1 H after i.v. administration): 6.67 % ID/g
Concentration of radioactivity, brain, Mean ([2]; 1 H after i.v. administration): 0.64 % ID/g
Concentration of radioactivity, kidney, Mean ([2]; 1 H after i.v. administration): 6.08 % ID/g
Concentration of radioactivity, liver, Mean ([2]; 1 H after i.v. administration): 5.14 % ID/g
Concentration of radioactivity, lungs, Mean ([2]; 1 H after i.v. administration): 7.59 % ID/g
Concentration of radioactivity, muscle (skeletal muscle), Mean ([2]; 1 H after i.v. administration): 1.48 % ID/g
Concentration of radioactivity, pancreas, Mean ([2]; 1 H after i.v. administration): 3.94 % ID/g
Concentration of radioactivity, spleen, Mean ([2]; 1 H after i.v. administration): 5.44 % ID/g
Concentration of radioactivity, testicles, Mean ([2]; 1 H after i.v. administration): 4.11 % ID/g
Concentration of radioactivity, thyroid, Mean ([2]; 1 H after i.v. administration): 25.29 % ID/g
Concentration of radioactivity, uvea (pigmented tissues of the eye), Mean ([2]; 1 H after i.v. administration): 16.66 % ID/g
Concentration of radioactivity, B 16 (tumour), Mean ([2]; 3 H after i.v. administration): 9.27 % ID/g
Concentration of radioactivity, GB (gall bladder), Mean ([2]; 3 H after i.v. administration): 6.78 % ID/g
Concentration of radioactivity, Ic (intestinal contents), Mean ([2]; 3 H after i.v. administration): 4.94 % ID/g
Concentration of radioactivity, SV (seminal vesicles), Mean ([2]; 3 H after i.v. administration): 3.78 % ID/g
Concentration of radioactivity, Sc (stomach contents), Mean ([2]; 3 H after i.v. administration): 42.71 % ID/g
Concentration of radioactivity, blood (measured in the heart cavity), Mean ([2]; 3 H after i.v. administration): 4.22 % ID/g
Concentration of radioactivity, brain, Mean ([2]; 3 H after i.v. administration): 0.22 % ID/g
Concentration of radioactivity, kidney, Mean ([2]; 3 H after i.v. administration): 3.26 % ID/g
Concentration of radioactivity, liver, Mean ([2]; 3 H after i.v. administration): 3.01 % ID/g
Concentration of radioactivity, lungs, Mean ([2]; 3 H after i.v. administration): 3.96 % ID/g
Concentration of radioactivity, pancreas, Mean ([2]; 3 H after i.v. administration): 2.53 % ID/g
Concentration of radioactivity, spleen, Mean ([2]; 3 H after i.v. administration): 2.68 % ID/g
Concentration of radioactivity, testicles, Mean ([2]; 3 H after i.v. administration): 2.43 % ID/g
Concentration of radioactivity, thyroid, Mean ([2]; 3 H after i.v. administration): 59.09 % ID/g
Concentration of radioactivity, uvea (pigmented tissues of the eye), Mean ([2]; 3 H after i.v. administration): 12.69 % ID/g
Concentration of radioactivity, B 16 (tumour), Mean ([2]; 6 H after i.v. administration): 6.97 % ID/g
Concentration of radioactivity, GB (gall bladder), Mean ([2]; 6 H after i.v. administration): 4.90 % ID/g
Concentration of radioactivity, Ic (intestinal contents), Mean ([2]; 6 H after i.v. administration): 2.98 % ID/g
Concentration of radioactivity, SV (seminal vesicles), Mean ([2]; 6 H after i.v. administration): 3.55 % ID/g
Concentration of radioactivity, Sc (stomach contents), Mean ([2]; 6 H after i.v. administration): 50.21 % ID/g
Concentration of radioactivity, blood (measured in the heart cavity), Mean ([2]; 6 H after i.v. administration): 3.71 % ID/g
Concentration of radioactivity, brain, Mean ([2]; 6 H after i.v. administration): 0.12 % ID/g
Concentration of radioactivity, kidney, Mean ([2]; 6 H after i.v. administration): 3.05 % ID/g
Concentration of radioactivity, liver, Mean ([2]; 6 H after i.v. administration): 2.09 % ID/g
Concentration of radioactivity, lungs, Mean ([2]; 6 H after i.v. administration): 3.21 % ID/g
Concentration of radioactivity, muscle (skeletal muscle), Mean ([2]; 6 H after i.v. administration): 0.53 % ID/g
Concentration of radioactivity, pancreas, Mean ([2]; 6 H after i.v. administration): 2.27 % ID/g
Concentration of radioactivity, spleen, Mean ([2]; 6 H after i.v. administration): 2.35 % ID/g
Concentration of radioactivity, testicles, Mean ([2]; 6 H after i.v. administration): 2.01 % ID/g
Concentration of radioactivity, thyroid, Mean ([2]; 6 H after i.v. administration): 7.92 % ID/g
Concentration of radioactivity, uvea (pigmented tissues of the eye), Mean ([2]; 6 H after i.v. administration): 11.50 % ID/g
Concentration of radioactivity, B 16 (tumour), Mean ([2]; 24 H after i.v. administration): 2.69 % ID/g
Concentration of radioactivity, Sc (stomach contents), Mean ([2]; 24 H after i.v. administration): 1.46 % ID/g
Concentration of radioactivity, thyroid, Mean ([2]; 24 H after i.v. administration): 111.30 % ID/g
Concentration of radioactivity, uvea (pigmented tissues of the eye), Mean ([2]; 24 H after i.v. administration): 6.07 % ID/g
Concentration of radioactivity, B 16 (tumour), Mean ([2]; 72 H after i.v. administration): 0.87 % ID/g
Concentration of radioactivity, kidney, Mean ([2]; 72 H after i.v. administration): 1.09 % ID/g
Concentration of radioactivity, thyroid, Mean ([2]; 72 H after i.v. administration): 178.80 % ID/g
Concentration of radioactivity, uvea (pigmented tissues of the eye), Mean ([2]; 72 H after i.v. administration): 2.54 % ID/g
Structure (SMILES): CCN(CC)CCNC(=O)c1ccc(I)nc1 [compound 7, N-(2-diethylaminoethyl)-6-iodonicotinamide dihydrochloride]
